{"source": "paper PMC6302903", "about": "“Protein and Chemical Determinants of BL-1249 Action and Selectivity for K2P Channels” (ACS Chemical Neuroscience, 2018)", "biological_target": "T1, K2P2.1(TREK-1) (Mus musculus, UniProt P97438)", "T1 sequence (P97438 1-411 isoform P97438-2)": "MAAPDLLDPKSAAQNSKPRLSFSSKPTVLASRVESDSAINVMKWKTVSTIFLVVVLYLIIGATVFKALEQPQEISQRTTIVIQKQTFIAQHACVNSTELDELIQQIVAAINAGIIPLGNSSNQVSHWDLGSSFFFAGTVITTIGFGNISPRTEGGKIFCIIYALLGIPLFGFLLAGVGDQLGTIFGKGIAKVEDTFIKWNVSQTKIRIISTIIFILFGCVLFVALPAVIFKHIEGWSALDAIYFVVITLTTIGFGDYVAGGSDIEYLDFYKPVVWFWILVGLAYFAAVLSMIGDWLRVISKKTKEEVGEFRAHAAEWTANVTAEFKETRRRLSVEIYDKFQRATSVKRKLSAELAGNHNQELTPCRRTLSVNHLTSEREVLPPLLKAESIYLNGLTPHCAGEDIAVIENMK", "test": "Inside-out patch clamp of K2P2.1(TREK-1) in HEK293 cells", "format": "cell-based", "parameters": "expressed in transfected cells", "conditions": "HEK293 inside-out patches, 150 mM K+[out]/150 mM Rb+[in], 1 μM", "description": "Diverse types of physical and chemical stimuli activate K2P2.1(TREK-1) by stabilizing the C-type gate and switching the channel into a “leak” mode that is characterized by a loss of outward rectification of the potassium current.[6],[8] Accordingly, we used inside-out patch clamp experiments of K2P2.1(TREK-1) expressed in HEK293 cells to test whether BL-1249 acts on the C-type gate. […] Together with previous single point concentration studies showing the insensitivity of K2P2.1(TREK-1) W275S in mammalian cells,[40] our data provide definitive evidence that BL-1249 activates K2P2.1(TREK-1) by stimulating the C-type gate. Thus, this compound fits the mechanistic paradigm shared by varied types of activators including mechanical stretch, pH, lipids, and small molecules.[6],[8]\nMouse K2P2.1 was expressed from a previously described pIRES2-EGFP vector in HEK293T cells (ATCC CRL-1573). Cells at 70% confluence were transfected (in 35 mm diameter wells) using LipofectAMINE 2000 (Invitrogen) for 6 h and plated onto coverslips coated with Matrigel (BD Biosciences).\nVoltage-dependent activation of K2P2.1 was recorded on excised patches in inside-out configuration (50 kHz sampling) in the absence and presence of 1 μM BL-1249. Pipette solution contained the following: 150 mM KCl, 3.6 mM CaCl2, 10 mM HEPES (pH 7.4 with KOH). […] Data were analyzed using Clampfit 9 and Origin 7.", "data": [{"compound": "c1ccc(-c2nnn[nH]2)c(Nc2cccc3c2CCCC3)c1", "note": "[BL-1249, (5,6,7,8-tetrahydro-naphthalen-1-yl)-[2-(1H-tetrazol-5-yl)-phenyl]-amine]", "values": [{"measurement": "effect on outward rectification (C-type gate)", "result": "clear loss of rectification"}]}]}
